What was measured:
[1] = molecular target: T1, mutEGFR (D770_N771insNPG, T790) (Homo sapiens, UniProt P00533, INS770NPG/T790M); test: mutEGFR (D770_N771insNPG, T790) kinase assay; format: biochemical; conditions: Table 2a, D770_N771insNPG
T1 construct: exact insNPG construct not described; in-house EGFR proteins were N-terminal GST fusions from baculovirus/insect cells (borders R669-A1210 given only for WT, insSVD, insASV)
Excerpt: The different EGFR proteins used in the biochemical kinase activity inhibition assays were generated inhouse by expression in insect cells using Baculo Virus system and subsequent purification as described in the following paragraphs.
The cDNAs encoding the various protein sequences from human EGFR human (P00533) were optimized for expression in eukaryotic cells and synthesized by the GeneArt Technology at Life Technologies.

[2] = test system: BA/F3 (insSVD) cells; test: Ba/F3-EGFR-insSVD cell survival assay (Cell Titer-Glo); format: cell-based; conditions: Mus musculus, BaF3, 48 h, Table 3a, cell survival, Cell Titer-Glo, with 10 ng/ml EGF, without IL-3
Outline: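 CellTiter-Glo luminescence read after 48 h compound exposure at 37° C. Cells: IL-3-independent Ba/F3 lines transduced with EGFR-insSVD or EGFR-insSVD T790M, maintained on 10 ng/ml EGF and seeded at 4000 per well.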

[3] = molecular target: T2, mutEGFR (D770_N771insSVD) (Homo sapiens, UniProt P00533, DUP768-770); test: Exon20-Mutant-EGFR (D770_N771insSVD) kinase assay (TR-FRET); format: biochemical; conditions: mutEGFR (D770_N771insSVD) kinase assay IC50, Table 2a; D770_N771insSVD; 2 mM ATP
T2 construct: GST-EGFR #3 (SVD between D770 and N771); made in house; host or cells: Sf9 insect cells (baculovirus)
T2 sequence (P00533 with tags, fused parts or gaps DUP768-770): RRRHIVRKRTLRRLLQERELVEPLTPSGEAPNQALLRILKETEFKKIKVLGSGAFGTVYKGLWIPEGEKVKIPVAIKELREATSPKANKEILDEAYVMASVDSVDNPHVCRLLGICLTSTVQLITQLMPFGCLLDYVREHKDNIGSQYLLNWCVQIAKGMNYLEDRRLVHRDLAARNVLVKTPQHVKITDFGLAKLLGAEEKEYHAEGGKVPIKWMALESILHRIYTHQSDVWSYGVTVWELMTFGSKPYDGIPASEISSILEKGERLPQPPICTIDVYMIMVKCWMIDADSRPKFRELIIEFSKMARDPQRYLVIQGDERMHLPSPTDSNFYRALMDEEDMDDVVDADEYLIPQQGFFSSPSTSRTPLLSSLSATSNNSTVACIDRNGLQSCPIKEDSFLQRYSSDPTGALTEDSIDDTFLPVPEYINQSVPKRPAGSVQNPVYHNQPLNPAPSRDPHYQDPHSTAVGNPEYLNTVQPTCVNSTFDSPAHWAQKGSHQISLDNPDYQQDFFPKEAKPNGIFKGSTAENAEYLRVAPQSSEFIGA

T1 sequence (P00533 with tags, fused parts or gaps INS770NPG/T790M limits assumed): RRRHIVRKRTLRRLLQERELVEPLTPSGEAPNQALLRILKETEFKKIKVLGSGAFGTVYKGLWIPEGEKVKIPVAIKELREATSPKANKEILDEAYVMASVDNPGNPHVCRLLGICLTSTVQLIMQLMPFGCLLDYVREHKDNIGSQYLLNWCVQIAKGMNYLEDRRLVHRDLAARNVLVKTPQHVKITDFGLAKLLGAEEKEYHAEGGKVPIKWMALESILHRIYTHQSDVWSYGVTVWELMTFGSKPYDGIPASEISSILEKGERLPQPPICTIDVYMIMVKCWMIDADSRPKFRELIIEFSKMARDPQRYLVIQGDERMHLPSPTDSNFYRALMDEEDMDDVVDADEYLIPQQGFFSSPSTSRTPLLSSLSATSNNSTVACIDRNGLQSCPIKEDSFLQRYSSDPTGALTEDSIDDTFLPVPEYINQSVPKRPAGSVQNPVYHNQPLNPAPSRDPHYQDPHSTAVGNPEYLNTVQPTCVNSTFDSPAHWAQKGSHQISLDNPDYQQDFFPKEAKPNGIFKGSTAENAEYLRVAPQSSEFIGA

SMILES	IC50 [1]	IC50 [2]	IC50 [3]
C=CC(=O)N1CCn2nc(-c3cc(Cl)ccc3F)c(-c3ccnc4[nH]cc(C)c34)c2C1 [Example 180, 1-[2-(5-chloro-2-fluorophenyl)-3-(3-methyl-1H-pyrrolo[2,3-b]pyridin-4-yl)-6,7-dihydropyrazolo[1,5-a]pyrazin-5(4H)-yl]prop-2-en-1-one]	0.0615 µM	0.112 µM	0.158 µM
C=CC(=O)N1CCn2nc(-c3ccc(C#N)cc3)c(-c3ccnc4[nH]cc(C)c34)c2C1 [Example 182, 4-[3-(3-methyl-1H-pyrrolo[2,3-b]pyridin-4-yl)-5-(prop-2-enoyl)-4,5,6,7-tetrahydropyrazolo[1,5-a]pyrazin-2-yl]benzonitrile]	1.08 µM	0.531 µM	0.861 µM
Cc1c[nH]c2nccc(-c3c(-c4ccc(Cl)cc4)nn4c3CN(C(=O)/C=C/CN(C)C)CC4)c12 [Example 183, (2E)-1-[2-(4-chlorophenyl)-3-(3-methyl-1H-pyrrolo[2,3-b]pyridin-4-yl)-6,7-dihydropyrazolo[1,5-a]pyrazin-5(4H)-yl]-4-(dimethylamino)but-2-en-1-one]	0.217 µM	0.0656 µM	0.0968 µM
Cc1c[nH]c2nccc(-c3c(-c4cccc(Cl)c4)nn4c3CN(C(=O)/C=C/CN(C)C)CC4)c12 [Example 184, (2E)-1-[2-(3-chlorophenyl)-3-(3-methyl-1H-pyrrolo[2,3-b]pyridin-4-yl)-6,7-dihydropyrazolo[1,5-a]pyrazin-5(4H)-yl]-4-(dimethylamino)but-2-en-1-one]	0.0528 µM	0.0566 µM	0.155 µM
Cc1c[nH]c2nccc(-c3c(-c4cccc5ccoc45)nn4c3CN(C(=O)/C=C/CN(C)C)CC4)c12 [Example 186, (2E)-1-[2-(1-benzofuran-7-yl)-3-(3-methyl-1H-pyrrolo[2,3-b]pyridin-4-yl)-6,7-dihydropyrazolo[1,5-a]pyrazin-5(4H)-yl]-4-(dimethylamino)but-2-en-1-one formic acid (1:1)]	0.129 µM	0.557 µM	0.21 µM
C=CC(=O)N1CCn2nc(-c3ccc(C(F)(F)F)nc3)c(-c3ccncc3)c2C1 [Example 188, 1-[3-(pyridin-4-yl)-2-[6-(trifluoromethyl)pyridin-3-yl]-6,7-dihydropyrazolo[1,5-a]pyrazin-5(4H)-yl]prop-2-en-1-one]	0.0112 µM	0.149 µM	0.155 µM
C=CC(=O)N1CCn2nc(-c3ccccc3)c(-c3ccncc3)c2C1 [Example 189, 1-[2-phenyl-3-(pyridin-4-yl)-6,7-dihydropyrazolo[1,5-a]pyrazin-5(4H)-yl]prop-2-en-1-one]	0.00174 µM	0.0223 µM	0.00102 µM
C=CC(=O)N1CCn2nc(-c3ccc(Cl)c(CC)c3)c(-c3ccncc3)c2C1 [Example 190, 1-[2-(4-chloro-3-ethylphenyl)-3-(pyridin-4-yl)-6,7-dihydropyrazolo[1,5-a]pyrazin-5(4H)-yl]prop-2-en-1-one]	0.00303 µM	0.172 µM	0.00103 µM
C=CC(=O)N1CCn2nc(-c3ccc(Cl)cc3CO)c(-c3ccncc3)c2C1 [Example 191, 1-{2-[4-chloro-2-(hydroxymethyl)phenyl]-3-(pyridin-4-yl)-6,7-dihydropyrazolo[1,5-a]pyrazin-5(4H)-yl}prop-2-en-1-one]	0.00126 µM	0.0329 µM	0.000626 µM
C=CC(=O)N1CCn2nc(-c3ccc4[nH]ccc4c3)c(-c3ccncc3)c2C1 [Example 193, 1-[2-(1H-indol-5-yl)-3-(pyridin-4-yl)-6,7-dihydropyrazolo[1,5-a]pyrazin-5(4H)-yl]prop-2-en-1-one]	0.00285 µM	0.0456 µM	0.000831 µM
C=CC(=O)N1CCn2nc(-c3ccc4occc4c3)c(-c3ccncc3)c2C1 [Example 194, 1-[2-(1-benzofuran-5-yl)-3-(pyridin-4-yl)-6,7-dihydropyrazolo[1,5-a]pyrazin-5(4H)-yl]prop-2-en-1-one]	0.000399 µM	0.0153 µM	0.000144 µM
CN(C)C/C=C/C(=O)N1CCn2nc(-c3ccc4sccc4c3)c(-c3ccncc3)c2C1 [Example 196, (2E)-1-[2-(1-benzothiophen-5-yl)-3-(pyridin-4-yl)-6,7-dihydropyrazolo[1,5-a]pyrazin-5(4H)-yl]-4-(dimethylamino)but-2-en-1-one]	0.000421 µM	0.0404 µM	0.000183 µM
CN(C)C/C=C/C(=O)N1CCn2nc(-c3ccc4[nH]ccc4c3)c(-c3ccncc3)c2C1 [Example 197, (2E)-4-(dimethylamino)-1-[2-(1H-indol-5-yl)-3-(pyridin-4-yl)-6,7-dihydropyrazolo[1,5-a]pyrazin-5(4H)-yl]but-2-en-1-one]	0.00801 µM	0.995 µM	0.00145 µM
CN(C)C/C=C/C(=O)N1CCn2nc(-c3ccc4nn[nH]c4c3)c(-c3ccncc3)c2C1 [Example 198, (2E)-1-[2-(1H-benzotriazol-6-yl)-3-(pyridin-4-yl)-6,7-dihydropyrazolo[1,5-a]pyrazin-5(4H)-yl]-4-(dimethylamino)but-2-en-1-one]	1.07 µM	6.39 µM	0.476 µM
CN(C)C/C=C/C(=O)N1CCn2nc(-c3ccc4occc4c3)c(-c3ccncc3)c2C1 [Example 199, (2E)-1-[2-(1-benzofuran-5-yl)-3-(pyridin-4-yl)-6,7-dihydropyrazolo[1,5-a]pyrazin-5(4H)-yl]-4-(dimethylamino)but-2-en-1-one]	0.00205 µM	0.132 µM	0.000672 µM
CN(C)C/C=C/C(=O)N1CCn2nc(-c3ccc4cc[nH]c4c3)c(-c3ccncc3)c2C1 [Example 200, (2E)-4-(dimethylamino)-1-[2-(1H-indol-6-yl)-3-(pyridin-4-yl)-6,7-dihydropyrazolo[1,5-a]pyrazin-5(4H)-yl]but-2-en-1-one]	0.000317 µM	0.069 µM	0.000161 µM
C=CC(=O)N1Cc2c(-c3ccncc3)c(-c3ccc(F)cc3)nn2C(C)(C)C1 [Example 207, 1-[2-(4-fluorophenyl)-7,7-dimethyl-3-(pyridin-4-yl)-6,7-dihydropyrazolo[1,5-a]pyrazin-5(4H)-yl]prop-2-en-1-one]	0.00222 µM	0.0246 µM	0.000644 µM
C=CC(=O)N1Cc2c(-c3ccncc3)c(-c3ccc(Cl)c(C)c3)nn2C(C)(C)C1 [Example 208, 1-[2-(4-chloro-3-methylphenyl)-7,7-dimethyl-3-(pyridin-4-yl)-6,7-dihydropyrazolo[1,5-a]pyrazin-5(4H)-yl]prop-2-en-1-one]	0.000365 µM	0.0158 µM	0.00014 µM
C=CC(=O)N1Cc2c(-c3ccncc3)c(-c3ccc(Cl)cc3)nn2C(C)(C)C1 [Example 209, 1-[2-(4-chlorophenyl)-7,7-dimethyl-3-(pyridin-4-yl)-6,7-dihydropyrazolo[1,5-a]pyrazin-5(4H)-yl]prop-2-en-1-one]	0.000694 µM	0.00815 µM	0.000226 µM
C=CC(=O)N1Cc2c(-c3ccncc3)c(-c3ccc(F)cc3)nn2CC1(C)C [Example 210, 1-[2-(4-fluorophenyl)-6,6-dimethyl-3-(pyridin-4-yl)-6,7-dihydropyrazolo[1,5-a]pyrazin-5(4H)-yl]prop-2-en-1-one]	0.0604 µM	0.551 µM	0.0259 µM
C=CC(=O)N1Cc2c(-c3ccncc3)c(-c3ccc(Cl)cc3)nn2CC1(C)C [Example 211, 1-[2-(4-chlorophenyl)-6,6-dimethyl-3-(pyridin-4-yl)-6,7-dihydropyrazolo[1,5-a]pyrazin-5(4H)-yl]prop-2-en-1-one]	0.0405 µM	0.378 µM	0.0125 µM
C=CC(=O)N1Cc2c(-c3ccncc3)c(-c3ccc(Cl)c(C)c3)nn2CC1(C)C [Example 212, 1-[2-(4-chloro-3-methylphenyl)-6,6-dimethyl-3-(pyridin-4-yl)-6,7-dihydropyrazolo[1,5-a]pyrazin-5(4H)-yl]prop-2-en-1-one]	0.0101 µM	0.296 µM	0.00561 µM
CN(C)C/C=C/C(=O)N1Cc2c(-c3ccncc3)c(-c3ccc(F)cc3)nn2C(C)(C)C1 [Example 213, (2E)-4-(dimethylamino)-1-[2-(4-fluorophenyl)-7,7-dimethyl-3-(pyridin-4-yl)-6,7-dihydropyrazolo[1,5-a]pyrazin-5(4H)-yl]but-2-en-1-one]	0.00327 µM	0.112 µM	0.000902 µM
Cc1cc(-c2nn3c(c2-c2ccncc2)CN(C(=O)/C=C/CN(C)C)CC3(C)C)ccc1Cl [Example 214, (2E)-1-[2-(4-chloro-3-methylphenyl)-7,7-dimethyl-3-(pyridin-4-yl)-6,7-dihydropyrazolo[1,5-a]pyrazin-5(4H)-yl]-4-(dimethylamino)but-2-en-1-one]	0.000654 µM	0.069 µM	0.000272 µM
CN(C)C/C=C/C(=O)N1Cc2c(-c3ccncc3)c(-c3ccc(Cl)cc3)nn2C(C)(C)C1 [Example 215, (2E)-1-[2-(4-chlorophenyl)-7,7-dimethyl-3-(pyridin-4-yl)-6,7-dihydropyrazolo[1,5-a]pyrazin-5(4H)-yl]-4-(dimethylamino)but-2-en-1-one]	0.0012 µM	0.0417 µM	0.000513 µM

From US20260365653A1, “IRREVERSIBLE MUTEGFR INHIBITORS” (Bayer Aktiengesellschaft, priority 2022, published 2026)
